This note sets out measurements from patent US7183320B2, “Benzoylsulfonamides and sulfonylbenzamidines for use as antitumour agents” (Eli Lilly and Company, priority 2002, dated 2007).

This assay has as its system HCT116 colon carcinoma cells. Kind of assay: HCT116 colon carcinoma cell growth inhibition (WST-1, 72 hr). The class given is cell-based, human. Here is the method: HCT116 Colon Carcinoma Cell Growth Inhibition
HCT116 colon carcinoma cells were grown monolayer culture in RPMI 1640 medium supplemented with 10% fetal bovine serum and 1% penicillin-streptomycin (GibcoBRL, Grand Island, N.Y.). HCT116 cells in exponential growth phase were exposed to various concentrations of the test compounds at 37° C. for 72 hr in 5% carbon dioxide/air. After exposure to the agent, the cells were washed with 0.9% phosphate buffered saline. Growth inhibition was determined using WST-1 cell proliferation reagent as described above. The results are expressed as the growth fraction of treated cells compared with control cultures. Representative compounds of the present invention were tested for efficacy against the human colon HCT116 tumor cells.
For orientation: Formazan colour is commonly taken as a measure of viable cells.

Where [1] appears, read: Homo sapiens, HCT-116, 72 hr exposure.

Each structure is given as a SMILES string.

Broadly, the IC50 is the concentration needed to halve the response being measured. Lower therefore signals inhibition by little substance. Consider `CCSc1ccc(S(=O)(=O)NC(=O)c2ccc(Br)cc2C)cc1` [Example 61, N-[2-methyl-4-bromobenzoyl]-4-ethylthiophenyl-sulfonamide], for which half-maximal inhibition under setting [1] (IC50) required 14.2 µM. Same read-out and setting: under `CC(C)c1ccc(S(=O)(=O)NC(=O)c2ccc(Cl)cc2Br)cc1` [Example 73, N-[2-bromo-4-chlorobenzoyl]-4-isopropylphenyl-sulfonamide] stands 8.3 µM. Still for that read-out and setting: for `O=C(NS(=O)(=O)c1ccc(Cl)c(Cl)c1)c1ccc([N+](=O)[O-])cc1Cl` [Example 21, N-[2-chloro-4-nitrobenzoyl]-3,4-dichlorophenyl-sulfonamide] the value was 30.4 µM. For `N=C(NS(=O)(=O)c1ccc(F)c(Cl)c1)c1ccc(F)c(Cl)c1` [Example 116, N-[3-chloro-4-fluorophenylsulfonyl]-3-chloro-4-fluorobenzamidine], half-maximal inhibition under setting [1] (IC50) was put at 5.9 µM.

`O=C(NS(=O)(=O)c1cccc(Br)c1)c1ccc(Cl)cc1Cl` [Example 1, N-[2,4-dichlorobenzoyl]-3-bromophenylsulfonamide] came in with a 50% inhibitory concentration (IC50) under setting [1] of 4.2 µM.

Regarding `Cc1cc(Cl)ccc1C(=O)NS(=O)(=O)c1cccc(Br)c1` [Example 90, N-[2-methyl-4-chlorobenzoyl]-3-bromophenylsulfonamide], half-maximal inhibition under setting [1] (IC50) required 4.5 µM. Under setting [1], `O=C(NS(=O)(=O)c1ccc(O)cc1)c1ccc(Cl)cc1Cl` [Example 82, N-[2,4-dichlorobenzoyl]-4-hydroxyphenyl-sulfonamide] displayed an IC50 of 12.4 µM. Under setting [1], `COc1ccc(S(=O)(=O)NC(=O)c2ccc(C(F)(F)F)cc2C(F)(F)F)cc1` [Example 47, N-[2,4-bis-trifluoromethylbenzoyl]-4-methoxyphenylsulfonamide] came in with an IC50 of 8.7 µM. In the case of `O=C(NS(=O)(=O)c1ccc(C(F)(F)F)cc1)c1ccc(Cl)cc1Cl` [Example 81, N-[2,4-dichlorobenzoyl]-4-trifluoromethyl-phenylsulfonamide], the IC50 under setting [1] was 11.3 µM. For the molecule `Cc1cccc(S(=O)(=O)NC(=O)c2ccc(C(F)(F)F)cc2C(F)(F)F)c1` [Example 50, N-[2,4-bis-trifluoromethylbenzoyl]-3-methylphenylsulfonamide], the IC50 under setting [1] came to 10.5 µM. `Cc1cc(Br)ccc1C(=O)NS(=O)(=O)c1ccc(I)cc1` [Example 36, N-[2-methyl-4-bromobenzoyl]-4-iodophenylsulfonamide] registered an IC50 under setting [1] of 28.4 µM. Take `CC(C)(C)c1ccc(S(=O)(=O)NC(=O)c2ccc(Cl)cc2Br)cc1` [Example 33, N-[2-bromo-4-chlorobenzoyl]-4-tert-butylphenylsulfonamide]: under setting [1], the half-maximal inhibitory concentration (IC50) came to 7.8 µM. Under setting [1], `Cc1cc(Cl)ccc1C(=O)NS(=O)(=O)c1ccc(OC(F)(F)F)cc1` [Example 51, N-[2-methyl-4-chlorobenzoyl]-4-trifluoromethoxy-phenylsulfonamide] returned an IC50 of 26.7 µM.

In turn, `Cc1cc(Br)ccc1C(=O)NS(=O)(=O)c1ccc(F)c(Cl)c1` [Example 35, N-[2-methyl-4-bromobenzoyl]-3-chloro-4-fluorophenylsulfonamide] showed an IC50 under setting [1] of 17 µM. In the case of `O=C(NS(=O)(=O)c1ccc(Br)c(Br)c1)c1ccc(Cl)cc1Cl` [Example 24, N-[2,4-dichlorobenzoyl]-3,4-dibromophenylsulfonamide], 37.1 µM corresponded to half-maximal inhibition under setting [1] (IC50). As for `O=C(NS(=O)(=O)c1ccc(Cl)cc1)c1ccc(Br)cc1Cl` [Example 112, N-[2-chloro-4-bromobenzoyl]-4-chlorophenylsulfonamide], the IC50 under setting [1] was 2.8 µM. `O=C(NS(=O)(=O)c1ccc(Br)cc1)c1ccc(Br)cc1Cl` [Example 14, N-[2-chloro-4-bromobenzoyl]-4-bromophenylsulfonamide]: half-maximal inhibition under setting [1] (IC50) was put at 40 µM. Consider `CN(C)c1ccc(S(=O)(=O)NC(=O)c2ccc(Cl)cc2Cl)cc1` [Example 98, N-[2,4-dichlorobenzoyl]-4-dimethylaminophenyl-sulfonamide], for which half-maximal inhibition under setting [1] (IC50) required 13 µM.

`N=C(NS(=O)(=O)c1ccc(F)c(Cl)c1)c1ccc(Cl)cc1` [Example 115, N-[3-chloro-4-fluorophenylsulfonyl]-4-chlorobenzamidine] gave a half-inhibitory concentration (IC50) under setting [1] of 33.6 µM.

`COc1ccc(S(=O)(=O)NC(=O)c2ccc(Cl)cc2Cl)cc1` [Example 3, N-[2,4-dichlorobenzoyl]-4-methoxyphenylsulfonamide]: it took 2.5 µM to reach half-maximal inhibition under setting [1] (IC50).

Turning to `O=C(NS(=O)(=O)c1ccc([N+](=O)[O-])cc1)c1ccc(Cl)cc1Cl` [Example 103, N-[2,4-dichlorobenzoyl]-4-nitrophenylsulfonamide], the IC50 under setting [1] is 11.9 µM. Still for that read-out and setting: under `O=C(NS(=O)(=O)c1ccc(Br)cc1)c1ccc([N+](=O)[O-])cc1Cl` [Example 15, N-[2-chloro-4-nitrobenzoyl]-4-bromophenylsulfonamide] stands 10.4 µM. `O=C(NS(=O)(=O)c1ccc(OC(F)(F)F)cc1)c1ccc(Cl)cc1Cl` [Example 96, N-[2,4-dichlorobenzoyl]-4-trifluoromethoxyphenyl-sulfonamide]: under setting [1], the midpoint of inhibition, the IC50, lay at 34.7 µM.

As for `COc1c(C)cc(S(=O)(=O)NC(=O)c2ccc(Cl)cc2Cl)cc1C` [Example 97, N-[2,4-dichlorobenzoyl]-4-methoxy-3,5-dimethylphenylsulfonamide], under setting [1], half-maximal inhibition (IC50) required 7 µM.

`Cc1cc(Cl)ccc1C(=O)NS(=O)(=O)c1ccc(Cl)cc1` [Example 93, N-[2-methyl-4-chlorobenzoyl]-4-chlorophenylsulfonamide] displayed an IC50 under setting [1] of 18.1 µM. For the setting “72 hr exposure”, `CC(=O)c1cccc(-c2ccc(S(=O)(=O)NC(=O)c3ccc(Cl)cc3Cl)cc2)c1` [Example 109, N-[2,4-dichlorobenzoyl]-4-3′-acetyl-biphenylsulfonamide] came in with an IC50 of 25.1 µM. For the molecule `Cc1cc(Cl)ccc1C(=O)NS(=O)(=O)c1ccc(Cl)c(Cl)c1` [Example 104, N-[2-methyl-4-chlorobenzoyl]-3,4-dichlorophenylsulfonamide], the IC50 under setting [1] was 22.2 µM.

On to `O=C(NS(=O)(=O)c1ccc(Br)cc1)c1ccc(Cl)cc1Cl` [Example 94, N-[2,4-dichlorobenzoyl]-4-bromophenylsulfonamide], for which the midpoint of inhibition under setting [1], the IC50, lay at 3.6 µM. Take `CSc1ccc(S(=O)(=O)NC(=O)c2ccc(Cl)cc2Cl)cc1` [Example 87, N-[2,4-dichlorobenzoyl]-4-methylthiophenylsulfonamide]: the IC50 under setting [1] amounted to 5.5 µM. In turn, `Cc1ccc(S(=O)(=O)NC(=O)c2ccc(Cl)cc2C)cc1` [Example 23, N-[2-methyl-4-chlorobenzoyl]-4-methylphenylsulfonamide] displayed an IC50 under setting [1] of 15.9 µM. In the case of `COc1ccccc1-c1ccc(S(=O)(=O)NC(=O)c2ccc(Cl)cc2Cl)cc1` [Example 122, N-[2,4-dichlorobenzoyl]-4-(1-methoxy-phen-2-yl)phenylsulfonamide], the IC50 (72 hr exposure) worked out at 25.8 µM. Consider `Cc1ccc(S(=O)(=O)NC(=O)c2ccc(C)cc2C(F)(F)F)cc1` [Example 79, N-[2-trifluoromethyl-4-methylbenzoyl]-4-methylphenyl-sulfonamide], for which, under setting [1], the midpoint of inhibition, the IC50, lay at 5.2 µM. The molecule `O=C(NS(=O)(=O)c1ccc(-c2ccco2)cc1)c1ccc(Cl)cc1Cl` [Example 121, N-[2,4-dichloro-benzoyl]-4-furan-2-yl-phenylsulfonamide] had an IC50 under setting [1] of 24.5 µM. In turn, `CSc1ccc(-c2ccc(S(=O)(=O)NC(=O)c3ccc(Cl)cc3Cl)cc2)cc1` [Example 108, N-[2,4-dichlorobenzoyl]-4-(1-methylsulfanylo-phen-4-yl)phenylsulfonamide] came in with an IC50 (72 hr exposure) of 16 µM. For `CCSc1ccc(S(=O)(=O)NC(=O)c2ccc(Cl)cc2Cl)cc1` [Example 62, N-[2,4-dichlorobenzoyl]-4-ethylthiophenyl-sulfonamide], it took 19.3 µM to reach half-maximal inhibition under setting [1] (IC50). Regarding `Cc1cc(Cl)ccc1C(=O)NS(=O)(=O)c1cccc(C#N)c1` [Example 106, N-[2-methyl-4-chlorobenzoyl]-3-cyanophenylsulfonamide], it took 4.6 µM to reach half-maximal inhibition under setting [1] (IC50). The molecule `O=C(NS(=O)(=O)c1ccc(F)cc1)c1ccc([N+](=O)[O-])cc1Cl` [Example 101, N-[2-chloro-4-nitrobenzoyl]-4-fluoro-phenylsulfonamide] had an IC50 under setting [1] of 12.4 µM. On the same count and under the same terms, for `O=C(NS(=O)(=O)c1ccc(I)cc1)c1ccc(Br)cc1Br` [Example 38, N-[2,4-dibromobenzoyl]-4-iodophenylsulfonamide] the value was 13.9 µM; for `Cc1cc(Cl)ccc1C(=O)NS(=O)(=O)c1ccc(F)c(F)c1` [Example 57, N-[2-methyl-4-chlorobenzoyl]-3,4-difluorophenyl-sulfonamide], 5 µM; for `O=C(NS(=O)(=O)c1ccc(Cl)cc1)c1ccc([N+](=O)[O-])cc1Cl` [Example 10, N-[2-chloro-4-nitrobenzoyl]-4-chlorophenylsulfonamide], 12.1 µM. With `Cc1cc(Cl)ccc1C(=O)NS(=O)(=O)c1ccc(I)cc1` [Example 56, N-[2-methyl-4-chlorobenzoyl]-4-iodophenylsulfonamide], under setting [1], half-maximal inhibition (IC50) required 16.8 µM. Turning to `Cc1ccc(S(=O)(=O)NC(=O)c2ccc(Cl)cc2Cl)cc1Cl` [Example 89, N-[2,4-dichlorobenzoyl]-3-chloro-4-methylphenylsulfonamide], the IC50 under setting [1] amounted to 4.8 µM. Molecule `Cc1cc(Br)ccc1C(=O)NS(=O)(=O)c1ccc(Br)cc1` [Example 100, N-[2-methyl-4-bromobenzoyl]-4-bromophenylsulfonamide] came in with an IC50 under setting [1] of 9.2 µM. The molecule `O=C(NS(=O)(=O)c1ccc(Br)cc1)c1ccc(C(F)(F)F)cc1C(F)(F)F` [Example 49, N-[2,4-bis-trifluoromethylbenzoyl]-4-bromophenylsulfonamide] came in with an IC50 under setting [1] of 14.7 µM. Molecule `COC(=O)c1cc(S(=O)(=O)NC(=O)c2ccc(Br)cc2Br)ccc1OC` [Example 34, N-[2,4-dibromobenzoyl]-3-methoxycarbonyl-4-methoxyphenylsulfonamide] showed an IC50 under setting [1] of 16.5 µM.

Turning to `O=C(NS(=O)(=O)c1ccc(F)cc1)c1ccc(C(F)(F)F)cc1C(F)(F)F` [Example 46, N-[2,4-bis-trifluoromethylbenzoyl]-4-fluorophenylsulfonamide], the IC50 under setting [1] worked out at 4.8 µM.
